{
  "source": "patent US10172355B2",
  "about": "“Safened herbicidal compositions including 4-amino-3-chloro-5-fluoro-6-(4-chloro-2-fluoro-3-methoxyphenyl)pyridine-2-carboxylic acid or a derivative thereof for use in rice” (Dow AgroSciences LLC, priority 2012, dated 2019)",
  "key": {"ORYSA=Orysa sativa, Rice": {"test_system": "ORYSA=Orysa sativa, Rice", "assay": "In-water applied herbicides and safeners in transplanted paddy rice, visual injury", "assay_type": "in vivo", "conditions": "for Mean Visual Injury (%) - 21 DAA ORYSA - ‘M202’ / Mean Visual Injury (%) - 21 DAA ORYSA - ‘Wells’: in-water applied", "description": "(§1) Weed seeds or nutlets of the desired test plant species were planted in puddled soil (mud) prepared by mixing a shredded, non-sterilized mineral soil (50.5 percent silt, 25.5 percent clay, and 24 percent sand, with a pH of about 7.6 and an organic matter content of about 2.9 percent) and water at a 1:1 volumetric ratio. The prepared mud was dispensed in 365 mL aliquots into 16-ounce (oz.) non-perforated plastic pots with a surface area of 86.59 square centimeters (cm^2) leaving a headspace of 3 centimeters (cm) in each pot. Rice seeds were planted in Sun Gro MetroMix® 306 planting mixture, which typically has a pH of 6.0 to 6.8 and an organic matter content of about 30 percent, in plastic plug trays. Seedlings at the second or third leaf stage of growth were transplanted into 860 mL of mud contained in 32-oz. non-perforated plastic pots with a surface area of 86.59 cm^2 4 days prior to herbicide application. The paddy was created by filling the headspace of the pots with 2.5 to 3 cm of water. When required to ensure good germination and healthy plants, a fungicide treatment and/or other chemical or physical treatment was applied. The plants were grown for 4-22 days in a greenhouse with an approximate 14 h photoperiod which was maintained at about 29′C during the day and about 26° C. during the night. Nutrients were added as Osmocote® (17:6:10, N:P:K+minor nutrients) at 2 g per 16-oz. pot and 4 g per 32-oz. pot. Water was added on a regular basis to maintain the paddy flood, and supplemental lighting was provided with overhead metal halide 1000-Watt lamps as necessary. The plants were employed for testing when they reached the second or third true leaf stage.\n(§2) Treatments consisted of the acid or esters of 4-amino-3-chloro-5-fluoro-6-(4-chloro-2-fluoro-3-methoxy-phenyl)pyridine-2-carboxylic acid (compound A) and various safeners alone and in combination. Forms of compound A were applied on an acid equivalent basis. Safener components were applied on an active ingredient or acid equivalent basis depending on the compound.\n(§3) Treatment requirements for each compound or herbicidal component were calculated based upon the rates being tested, the concentration of active ingredient or acid equivalent in the formulation, an application volume of 2 mL per component per pot, and an application area of 86.59 cm^2 per pot.\n(§4) For formulated compounds, a measured amount was placed in an individual 100 or 200 mL glass vial and was dissolved in a volume of 1.25% (v/v) Agri-Dex® crop oil concentrate to obtain application solutions.\n(§5) For technical grade compounds, a weighed amount can be placed in an individual 100 to 200 mL glass vial and dissolved in a volume of acetone to obtain concentrated stock solutions. […] The concentrated stock solutions obtained can be diluted with an equivalent volume of an aqueous mixture containing 2.5% (v/v) crop oil concentrate so that the final application solutions contain 1.25% (v/v) crop oil concentrate.\n(§6) Applications were made by injecting with a pipetter appropriate amounts of the application solutions, individually and sequentially, into the aqueous layer of the paddy. Control plants were treated in the same manner with the solvent blank. Applications were made so that all treated plant material received the same concentrations of acetone and crop oil concentrate.\n(§7) The treated plants and control plants were placed in a greenhouse as described above and water was added as needed to maintain a paddy flood. After approximately 3 weeks the condition of the test plants as compared with that of the untreated plants was determined visually and scored on a scale of 0 to 100 percent where 0 corresponds to no injury or growth inhibition and 100 corresponds to complete kill.\nColby's equation was used to determine the herbicidal effects expected from the mixtures (Colby, S. R. 1967. Calculation of the synergistic and antagonistic response of herbicide combinations. Weeds 15:20-22.). […]"}, "[1]": {"test_system": "ECHCG=Echinochloa crus-galli", "assay": "In-water applied herbicides in paddy, visual injury of weed", "assay_type": "in vivo", "description": "as §1, §2, §3, §4, §5, §6, §7\nSome of the safener-herbicide combinations tested, application rates and ratios employed, plant species tested, and results are given in Tables 16-17. […]"}},
  "data": [
    {"smiles": "COc1c(Cl)ccc(-c2nc(C(=O)OCc3ccccc3)c(Cl)c(N)c2F)c1F", "note": "[Benzyl]", "values": [
      {"measurement": "Mean Visual Injury (%) - 21 DAA ORYSA - ‘M202’", "setting": "ORYSA=Orysa sativa, Rice; 8.75 g ae/ha", "result": 0, "unit": "%"},
      {"measurement": "Mean Visual Injury (%) - 21 DAA ORYSA - ‘Wells’", "setting": "ORYSA=Orysa sativa, Rice; 8.75 g ae/ha", "result": 0, "unit": "%"},
      {"measurement": "Mean Visual Injury (%) - 21 DAA ORYSA - ‘M202’", "setting": "ORYSA=Orysa sativa, Rice; 17.5 g ae/ha", "result": 0, "unit": "%"},
      {"measurement": "Mean Visual Injury (%) - 21 DAA ORYSA - ‘Wells’", "setting": "ORYSA=Orysa sativa, Rice; 17.5 g ae/ha", "result": 0, "unit": "%"},
      {"measurement": "Mean Visual Injury (%) - 21 DAA ORYSA - ‘M202’", "setting": "ORYSA=Orysa sativa, Rice; 35 g ae/ha", "result": 0, "unit": "%"},
      {"measurement": "Mean Visual Injury (%) - 21 DAA ORYSA - ‘Wells’", "setting": "ORYSA=Orysa sativa, Rice; 35 g ae/ha", "result": 3, "unit": "%"},
      {"measurement": "Mean Visual Injury (%) - 21 DAA ORYSA - ‘M202’", "setting": "ORYSA=Orysa sativa, Rice; 70 g ae/ha", "result": 0, "unit": "%"},
      {"measurement": "Mean Visual Injury (%) - 21 DAA ORYSA - ‘Wells’", "setting": "ORYSA=Orysa sativa, Rice; 70 g ae/ha", "result": 0, "unit": "%"},
      {"measurement": "Mean Visual Injury (%) - 21 DAA ORYSA - ‘M202’", "setting": "ORYSA=Orysa sativa, Rice; 140 g ae/ha", "result": 22, "unit": "%"},
      {"measurement": "Mean Visual Injury (%) - 21 DAA ORYSA - ‘Wells’", "setting": "ORYSA=Orysa sativa, Rice; 140 g ae/ha", "result": 15, "unit": "%"},
      {"measurement": "selectivity margin", "setting": "ORYSA=Orysa sativa, Rice; in-water, relative rice and barnyardgrass responses, over that of the acid", "result": "improved selectivity margin"},
      {"measurement": "Mean Visual Injury (%) - 21 DAA ECHCG", "setting": "[1]; 8.75 g ae/ha", "result": 23, "unit": "%"},
      {"measurement": "Mean Visual Injury (%) - 21 DAA ECHCG", "setting": "[1]; 17.5 g ae/ha", "result": 43, "unit": "%"},
      {"measurement": "Mean Visual Injury (%) - 21 DAA ECHCG", "setting": "[1]; 35 g ae/ha", "result": 81, "unit": "%"},
      {"measurement": "Mean Visual Injury (%) - 21 DAA ECHCG", "setting": "[1]; 70 g ae/ha", "result": 100, "unit": "%"},
      {"measurement": "Mean Visual Injury (%) - 21 DAA ECHCG", "setting": "[1]; 140 g ae/ha", "result": 100, "unit": "%"}
    ]},
    {"smiles": "COc1c(Cl)ccc(-c2nc(C(=O)O)c(Cl)c(N)c2F)c1F", "note": "[Acid, 4-amino-3-chloro-6-(4-chloro-2-fluoro-3-methoxyphenyl)-5-fluoropyridine-2-carboxylic acid]", "values": [
      {"measurement": "Mean Visual Injury (%) - 21 DAA ORYSA - ‘M202’", "setting": "ORYSA=Orysa sativa, Rice; 8.75 g ae/ha", "result": 0, "unit": "%"},
      {"measurement": "Mean Visual Injury (%) - 21 DAA ORYSA - ‘Wells’", "setting": "ORYSA=Orysa sativa, Rice; 8.75 g ae/ha", "result": 0, "unit": "%"},
      {"measurement": "Mean Visual Injury (%) - 21 DAA ORYSA - ‘M202’", "setting": "ORYSA=Orysa sativa, Rice; 17.5 g ae/ha", "result": 0, "unit": "%"},
      {"measurement": "Mean Visual Injury (%) - 21 DAA ORYSA - ‘Wells’", "setting": "ORYSA=Orysa sativa, Rice; 17.5 g ae/ha", "result": 0, "unit": "%"},
      {"measurement": "Mean Visual Injury (%) - 21 DAA ORYSA - ‘M202’", "setting": "ORYSA=Orysa sativa, Rice; 35 g ae/ha", "result": 0, "unit": "%"},
      {"measurement": "Mean Visual Injury (%) - 21 DAA ORYSA - ‘Wells’", "setting": "ORYSA=Orysa sativa, Rice; 35 g ae/ha", "result": 0, "unit": "%"},
      {"measurement": "Mean Visual Injury (%) - 21 DAA ORYSA - ‘M202’", "setting": "ORYSA=Orysa sativa, Rice; 70 g ae/ha", "result": 3, "unit": "%"},
      {"measurement": "Mean Visual Injury (%) - 21 DAA ORYSA - ‘Wells’", "setting": "ORYSA=Orysa sativa, Rice; 70 g ae/ha", "result": 0, "unit": "%"},
      {"measurement": "Mean Visual Injury (%) - 21 DAA ORYSA - ‘M202’", "setting": "ORYSA=Orysa sativa, Rice; 140 g ae/ha", "result": 25, "unit": "%"},
      {"measurement": "Mean Visual Injury (%) - 21 DAA ORYSA - ‘Wells’", "setting": "ORYSA=Orysa sativa, Rice; 140 g ae/ha", "result": 8, "unit": "%"},
      {"measurement": "Mean Visual Injury (%) - 21 DAA ECHCG", "setting": "[1]; 8.75 g ae/ha", "result": 0, "unit": "%"},
      {"measurement": "Mean Visual Injury (%) - 21 DAA ECHCG", "setting": "[1]; 17.5 g ae/ha", "result": 0, "unit": "%"},
      {"measurement": "Mean Visual Injury (%) - 21 DAA ECHCG", "setting": "[1]; 35 g ae/ha", "result": 10, "unit": "%"},
      {"measurement": "Mean Visual Injury (%) - 21 DAA ECHCG", "setting": "[1]; 70 g ae/ha", "result": 63, "unit": "%"},
      {"measurement": "Mean Visual Injury (%) - 21 DAA ECHCG", "setting": "[1]; 140 g ae/ha", "result": 95, "unit": "%"}
    ]}
  ]
}
